Laboratory results from patent US10865216B2, “Tricyclic Gyrase inhibitors” (MERCK SHARP & DOHME CORP., priority 2012, dated 2020).
Values after ≈ are worked out from the molar mass of the structure shown.

What was measured:
S. aureus ATCC 13709 = assay: MIC, S. aureus ATCC 13709; type: cell-based; conditions: for MIC: Staphylococcus aureus, ATCC13709, S. aureus, read-out: MIC Sa
E. coli ATCC 25922 = assay: MIC, E. coli ATCC 25922; type: cell-based; conditions: for MIC: Escherichia coli, ATCC25922, E. coli, read-out: MIC Ec
[1] = S. aureus, Alamar Blue read after overnight incubation at 35° C.
[2] = E. coli, Alamar Blue read after overnight incubation at 35° C.
[3] = Alamar Blue read after overnight incubation at 35° C.

| MIC Sa (S. aureus ATCC 13709; [1]) [µg/mL] | MIC Ec (E. coli ATCC 25922; [2]) [µg/mL] | MIC (S. aureus ATCC 13709; [3]) [µg/mL] | MIC (E. coli ATCC 25922; [3]) [µg/mL] | Structure (SMILES) | further results |
| --- | --- | --- | --- | --- | --- |
| – | – | – | – | CNc1cc(F)cc2c1[nH]c1nc(Oc3ccn4ccnc4c3)nc(N3C[C@H]4C[C@@H]3C[C@H]4N)c12 [Compound 10.22] | MIC Sa (S. aureus ATCC 13709; Table 18, Sa): ≤ 0.5 µg/mL; MIC Ec (E. coli ATCC 25922; Table 18, Ec): ≤ 0.5 µg/mL |
| – | – | – | – | CNc1cc(F)c(F)c2c1[nH]c1nc(Oc3cnc(C)nc3)nc(N3CC[C@]4(CC[C@H]4N)C3)c12 [Compound 10.92] | MIC Sa (S. aureus ATCC 13709; Table 18, Sa): ≤ 0.5 µg/mL; MIC Ec (E. coli ATCC 25922; Table 18, Ec): ≤ 0.5 µg/mL |
| ≤0.5 | 2 (≈ 4.09 µM) | – | – | CNc1cc(F)cc2c1[nH]c1nc(Oc3cnc(N4CCCC4=O)nc3)nc(N3CC4C(N)C4C3)c12 (centres unmarked) [Compound 4.345] | – |
| ≤0.5 | ≤0.5 | – | – | CNc1cc(F)cc2c1[nH]c1nc(Oc3cnc(C4CC4)nc3)nc(N3CC4CCC(CN)C4C3)c12 (centres unmarked) [Compound 4.253] | – |
| – | – | ≤ 0.5 | 1 (≈ 2.06 µM) | CNc1cccc2c1[nH]c1nc(Sc3cnc4ccc[n+]([O-])c4c3)nc(N3CC(N)C4(CC4)C3)c12 (centres unmarked) [Compound 1.40] | – |
| – | – | ≤ 0.5 | > 64 | CNc1cccc2c1[nH]c1nc(Sc3cnc4cccnc4c3)nc(N3CCN(c4cnccn4)CC3)c12 [Compound 1.54] | – |
| ≤0.5 | 2 (≈ 3.84 µM) | – | – | CNc1cc(F)cc2c1[nH]c1nc(Oc3cnc(N4CCN(C(C)=O)CC4)nc3)nc(N3CC[C@@H](N)C3)c12 [Compound 4.229] | – |
| – | – | > 64 | > 64 | CNc1ncnc2c1[nH]c1nc(Oc3cncnc3)nc(Oc3cncnc3)c12 [Compound 7.10] | – |
| – | – | 8 (≈ 19.1 µM) | > 64 | CNc1ncnc2c1[nH]c1nc(Oc3cnc(C)nc3)nc(N3CCC4(CC4N)C3)c12 (centres unmarked) [Compound 7.09] | – |
| ≤0.5 | ≤0.5 | – | – | CNc1cc(F)cc2c1[nH]c1nc(Oc3cncnc3)nc(N3CC4C[C@@H](N)C4C3)c12 (some centres unmarked) [Compound 4.028] | – |
| 1 (≈ 2.31 µM) | 16 (≈ 36.9 µM) | – | – | CCc1cc(F)cc2c1[nH]c1nc(Oc3cnc(C)nc3)nc(N3CC(N)C4(CC4)C3)c12 (centres unmarked) [Compound 2.3] | – |
| ≤0.5 | 1 (≈ 2.13 µM) | – | – | CNc1cccc2c1[nH]c1nc(Sc3cnc4cccnc4c3)nc(N3CCC4(CC4N)C3)c12 (centres unmarked) [Compound 1.26] | – |
| – | – | – | – | CNc1cc(F)c(Cl)c2c1[nH]c1nc(Oc3cnc4ccnn4c3)nc(N3C[C@H]4C[C@@H](N)[C@H]4C3)c12 [Compound 10.86] | MIC Sa (S. aureus ATCC 13709; Table 18, Sa): ≤ 0.5 µg/mL; MIC Ec (E. coli ATCC 25922; Table 18, Ec): 0.25 µg/mL (≈ 0.506 µM) |
| – | – | – | – | CNc1cc(F)cc2c1[nH]c1nc(Oc3cnc4ccnn4c3)nc(N3C[C@@H]4[C@H](N)C[C@]4(C)C3)c12 [Compound 10.18] | MIC Sa (S. aureus ATCC 13709; Table 18, Sa): ≤ 0.5 µg/mL; MIC Ec (E. coli ATCC 25922; Table 18, Ec): ≤ 0.5 µg/mL |
| ≤0.5 | 1 (≈ 2.3 µM) | – | – | CNc1cc(F)cc2c1[nH]c1nc(Oc3cncnc3)nc(N3CCC(C4(N)CC4)C3)c12 (centres unmarked) [Compound 4.027] | – |
| – | – | 2 (≈ 5.19 µM) | > 64 | CNc1cccc2c1[nH]c1nc(Oc3cncnc3)cc(Oc3cncnc3)c12 [Compound 3.37] | – |
| – | – | 16 (≈ 33 µM) | > 64 | CNc1cccc2c1[nH]c1nc(Sc3cnc4cccnc4c3)nc(N3CC4C(C3)C4(N)CO)c12 (centres unmarked) [Compound 1.30] | – |
| >64 | >64 | – | – | CNc1cccc2c1[nH]c1nc(Sc3cnc4ccc[n+]([O-])c4c3)nc(N3C[C@@H]4[C@H](C3)[C@@]4(N)C(N)=O)c12 [Compound 1.19] | – |
| – | – | 2 (≈ 4.81 µM) | 64 (≈ 154 µM) | CNc1cccc2c1[nH]c1nc(Oc3ccc[n+]([O-])c3)nc(Oc3cnc(C)nc3)c12 [Compound 8.3] | – |
| – | – | ≤ 0.5 | ≤ 0.5 | CNc1cc(F)cc2c1[nH]c1nc(Oc3cnc(C(C)(C)C)nc3)nc(N3CC4CC3C[C@H]4N)c12 (some centres unmarked) [Compound 4.441] | – |
| – | – | 4 (≈ 8.04 µM) | > 64 | CNc1cccc2c1[nH]c1nc(Sc3ccc4ccc(C(=O)O)nc4c3)nc(N3CC4C(N)C4C3)c12 (centres unmarked) [Compound 1.74] | – |
| ≤0.5 | 1 (≈ 2.36 µM) | – | – | CNc1cc(F)cc2c1[nH]c1nc(Oc3cnc(N)nc3)nc(N3CCC(CN)C3)c12 (centres unmarked) [Compound 4.176] | – |
| ≤0.5 | 2 (≈ 4.22 µM) | – | – | CNc1cc(F)cc2c1[nH]c1nc(Oc3ccc4c(c3)C(=O)NC4)nc(N3CC4(CCC4N)C3)c12 (centres unmarked) [Compound 4.270] | – |
| ≤0.5 | ≤0.5 | – | – | CNc1cc(F)cc2c1[nH]c1nc(Oc3cnc(C(C)(C)C)nc3)nc(N3CC4C(N)C4C3)c12 (centres unmarked) [Compound 4.314] | – |
| – | – | 8 (≈ 15.2 µM) | 32 (≈ 60.8 µM) | CNc1cccc2c1[nH]c1nc(Sc3cncc(S(=O)(=O)NCCO)c3)nc(N3CC4C(N)C4C3)c12 (centres unmarked) [Compound 1.42] | – |
| – | – | ≤ 0.5 | 4 (≈ 8.25 µM) | CCNc1cccc2c1[nH]c1nc(Sc3cnc4ccc[n+]([O-])c4c3)nc(N3CC4C(N)C4C3)c12 (centres unmarked) [Compound 1.10] | – |
| – | – | – | – | CNc1cc(F)cc2c1[nH]c1nc(Nc3cnc(C)nc3)nc(N3C[C@H]4C[C@@H]3C[C@H]4N)c12 [Compound 10.41] | MIC Sa (S. aureus ATCC 13709; Table 18, Sa): ≤ 0.5 µg/mL; MIC Ec (E. coli ATCC 25922; Table 18, Ec): ≤ 0.5 µg/mL |
| – | – | – | – | CNc1cc(F)cc2c1[nH]c1nc(NCc3cccnc3)nc(N3C[C@H]4C[C@@H]3C[C@H]4N)c12 [Compound 10.48] | MIC Sa (S. aureus ATCC 13709; Table 18, Sa): 8 µg/mL (≈ 18.5 µM); MIC Ec (E. coli ATCC 25922; Table 18, Ec): 16 µg/mL (≈ 37 µM) |
